From PubChem BioAssay AID330 (DTP/NCI, 2004)
“And” between values parts separate entries of the source, which are not always exact repeats. Identical values can stand only once. Toxic doses and inconclusive results are not listed. The calls were made as follows: active = survival T/C of 150% or more; inactive = T/C below 125% in these data. Square brackets hold non-standard residues; d marks the D form. Peptide text beside a SMILES is read from it. * marks the point of attachment. Cbz = O=C(OCc1ccccc1)*; Nva = CCC[CH](N)C(=O)O

System: P388 leukemia ip, CD2F1 mice, survival T/C
Assay: NCI In Vivo Anticancer Drug Screen. Data for tumor model P388 Leukemia (intraperitoneal) in CD2F1 (CDF1) mice
Details: endpoint: median survival time, higher = longer survival
In short: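 Mice carrying the transplanted tumor received test compound or vehicle. Survival was recorded in each group, and the value is the treated-group measurement divided by that of the vehicle-treated control group.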

[1] = dose: 25.0 mg/kg/injection, schedule: Q01DX005 (ip), vehicle: saline with Tween-80
[2] = dose: 50.0 mg/kg/injection, schedule: Q01DX005 (ip), vehicle: saline with Tween-80
[3] = dose: 200.0 mg/kg/injection, schedule: Q01DX005 (ip), vehicle: saline with Tween-80
[4] = dose: 100.0 mg/kg/injection, schedule: Q01DX005 (ip), vehicle: saline with Tween-80
[5] = dose: 100.0 mg/kg/injection, schedule: Q04DX002 (ip), vehicle: Klucel (hydroxypropylcellulose) (HPC)
[6] = dose: 200.0 mg/kg/injection, schedule: Q04DX002 (ip), vehicle: Klucel (hydroxypropylcellulose) (HPC)

Measured: T/C

S=c1[nH]c(=S)c2[nH]c(=S)[nH]c2[nH]1
inactive: dose: 12.5 mg/kg/injection, schedule: Q01DX005 (ip), vehicle: saline with Tween-80 92 % of control | [1] 96 % of control | [2] 90 % of control and 95 % of control | [3] 89 % of control

COc1nc(N=[N+]=[N-])nc(-c2c(OC)ccc3ccccc23)n1
inactive: [1] 105 % of control | [2] 96 % of control | [4] 89 % of control | [3] 89 % of control

C=C1C(=O)OC2C(OC(=O)CC)CCCC12 (stereo not drawn)
inactive: dose: 60.0 mg/kg/injection, schedule: Q01DX005 (ip), vehicle: Klucel (hydroxypropylcellulose) (HPC) 95 % of control | dose: 120.0 mg/kg/injection, schedule: Q01DX005 (ip), vehicle: Klucel (hydroxypropylcellulose) (HPC) 98 % of control | dose: 240.0 mg/kg/injection, schedule: Q01DX005 (ip), vehicle: Klucel (hydroxypropylcellulose) (HPC) 110 % of control

Nc1ccccc1C(=O)Nc1ccc(Cl)cc1C(=O)O
inactive: dose: 50.0 mg/kg/injection, schedule: Q01DX009 (ip), vehicle: saline 101 % of control | dose: 100.0 mg/kg/injection, schedule: Q01DX009 (ip), vehicle: saline 106 % of control

CCCCCCCCC(=O)OCCNC(=O)C(C)OC(=O)CCCCCCCC (stereo not drawn)
inactive: dose: 100.0 mg/kg/injection, schedule: Q01DX009 (ip), vehicle: Klucel (hydroxypropylcellulose) (HPC) 96 % of control | dose: 200.0 mg/kg/injection, schedule: Q01DX009 (ip), vehicle: Klucel (hydroxypropylcellulose) (HPC) 100 % of control | dose: 400.0 mg/kg/injection, schedule: Q01DX009 (ip), vehicle: Klucel (hydroxypropylcellulose) (HPC) 98 % of control

Cn1c(=O)[nH]n(C2Cn3c(=O)n(C)c(=O)n3-c3ccccc32)c1=O (stereo not drawn)
inactive: dose: 50.0 mg/kg/injection, schedule: Q01DX005 (ip), vehicle: Klucel (hydroxypropylcellulose) (HPC) 115 % of control | dose: 100.0 mg/kg/injection, schedule: Q01DX005 (ip), vehicle: Klucel (hydroxypropylcellulose) (HPC) 99 % of control | dose: 200.0 mg/kg/injection, schedule: Q01DX005 (ip), vehicle: Klucel (hydroxypropylcellulose) (HPC) 96 % of control

NC(=O)Nc1nc(C(F)(F)F)cc(=O)[nH]1
inactive: dose: 50.0 mg/kg/injection, schedule: Q01DX009 (ip), vehicle: saline with Tween-80 103 % of control | dose: 100.0 mg/kg/injection, schedule: Q01DX009 (ip), vehicle: saline with Tween-80 106 % of control | dose: 200.0 mg/kg/injection, schedule: Q01DX009 (ip), vehicle: saline with Tween-80 99 % of control

CCCC(NC(=O)C(Cc1ccccc1)NC(=O)OCc1ccccc1)C(=O)O (stereo not drawn) (Cbz-Phe-[Nva]-OH; configuration not given here)
inactive: [2] 104 % of control | [4] 101 % of control | [3] 98 % of control

Cc1nnc2sc(-c3cccc(Cl)c3)nn2c1=O
inactive: dose: 50.0 mg/kg/injection, schedule: Q04DX002 (ip), vehicle: Klucel (hydroxypropylcellulose) (HPC) 102 % of control | [5] 100 % of control | [6] 100 % of control

Cc1ccc(C(=O)CCN(C)C)c(C)c1
inactive: dose: 15.0 mg/kg/injection, schedule: Q01DX005 (ip), vehicle: saline 106 % of control | dose: 30.0 mg/kg/injection, schedule: Q01DX005 (ip), vehicle: saline 100 % of control | dose: 60.0 mg/kg/injection, schedule: Q01DX005 (ip), vehicle: saline 89 % of control and 97 % of control

Cc1ccc(S(=O)(=O)CC(=O)CC(=O)C(=O)Nc2cc(C)ccc2C)cc1
inactive: dose: 60.0 mg/kg/injection, schedule: Q01DX005 (ip), vehicle: saline with Tween-80 105 % of control | dose: 120.0 mg/kg/injection, schedule: Q01DX005 (ip), vehicle: saline with Tween-80 108 % of control | dose: 240.0 mg/kg/injection, schedule: Q01DX005 (ip), vehicle: saline with Tween-80 106 % of control

CS(=O)c1c(C(=O)O)cc(C(C)(C)C)cc1C(=O)O (stereo not drawn)
inactive: [5] 105 % of control | [6] 107 % of control | dose: 400.0 mg/kg/injection, schedule: Q04DX002 (ip), vehicle: Klucel (hydroxypropylcellulose) (HPC) 96 % of control

C[n+]1c(/C=C/c2ccc(N3CCCC3)cc2)sc2ccccc21
inactive: dose: 0.79 mg/kg/injection, schedule: Q01DX009 (ip), vehicle: saline 105 % of control | dose: 1.56 mg/kg/injection, schedule: Q01DX009 (ip), vehicle: saline 95 % of control | dose: 3.12 mg/kg/injection, schedule: Q01DX009 (ip), vehicle: saline 106 % of control and 117 % of control | dose: 6.25 mg/kg/injection, schedule: Q01DX009 (ip), vehicle: saline 108 % of control

N#CC1=CNc2ccccc2N=C1N
inactive: [2] 104 % of control | [4] 99 % of control
